Source: patent US8877815B2, “Substituted carbamoylcycloalkyl acetic acid derivatives as NEP” (Novartis AG, priority 2010, dated 2014)
pIC50: −log10 of the molar value.

The molecules below were run against T1, recombinant human neutral endopeptidase (NEP, EC 3.4.24.11) (Homo sapiens, UniProt P08473) (assay: in vitro inhibition of recombinant human neutral endopeptidase (fluorescence lifetime assay)). Settings: 1 hour pre-incubation, read after 1 hour at room temperature, pH 7.4, substrate Cys(PT14)-Arg-Arg-Leu-Trp-OH 0.7 μM.
T1 construct: made in house; host or cells: insect cells
T1 sequence (P08473 whole entry): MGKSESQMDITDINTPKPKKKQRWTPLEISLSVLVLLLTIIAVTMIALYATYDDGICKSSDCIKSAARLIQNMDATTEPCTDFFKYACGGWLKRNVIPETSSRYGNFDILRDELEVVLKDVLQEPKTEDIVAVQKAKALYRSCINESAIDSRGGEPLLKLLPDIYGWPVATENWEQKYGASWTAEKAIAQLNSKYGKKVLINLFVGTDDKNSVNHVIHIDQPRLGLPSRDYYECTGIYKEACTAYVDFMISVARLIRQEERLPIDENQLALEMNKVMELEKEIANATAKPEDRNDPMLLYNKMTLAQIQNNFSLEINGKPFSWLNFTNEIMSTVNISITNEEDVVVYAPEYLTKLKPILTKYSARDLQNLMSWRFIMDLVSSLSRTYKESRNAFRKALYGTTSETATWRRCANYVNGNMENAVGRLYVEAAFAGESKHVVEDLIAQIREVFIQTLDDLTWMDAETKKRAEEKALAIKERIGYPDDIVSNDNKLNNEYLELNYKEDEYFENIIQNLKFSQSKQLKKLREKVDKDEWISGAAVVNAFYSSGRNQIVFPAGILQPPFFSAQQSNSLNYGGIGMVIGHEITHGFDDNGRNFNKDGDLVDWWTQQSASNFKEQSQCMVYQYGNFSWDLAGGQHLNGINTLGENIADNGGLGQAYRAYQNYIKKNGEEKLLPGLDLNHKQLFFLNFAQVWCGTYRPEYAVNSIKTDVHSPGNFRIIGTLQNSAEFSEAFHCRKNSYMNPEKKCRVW
Format: biochemical
Source text: The activity of a compound according to the present invention can be assessed by the following in vitro & in vivo methods and/or by the following in vitro & in vivo methods well-described in the art. See A fluorescence lifetime-based assay for protease inhibitor profiling on human kallikrein 7 Doering K, Meder G, Hinnenberger M, Woelcke J, Mayr L M, Hassiepen U Biomol Screen. 2009 January; 14(1):1-9.
In particular, the in vitro inhibition of recombinant human neutral endopeptidase (NEP, EC 3.4.24.11) can be determined as follows:
Recombinant human neutral endopeptidase (expressed in insect cells and purified using standard methods, final concentration 7 pM) is pre-incubated with test compounds at various concentrations for 1 hour at room temperature in 10 mM sodium phosphate buffer at pH 7.4, containing 150 mM NaCl and 0.05% (w/v) CHAPS. The enzymatic reaction is started by the addition of a synthetic peptide substrate Cys(PT14)-Arg-Arg-Leu-Trp-OH to a final concentration of 0.7 μM. Substrate hydrolysis leads to an increase fluorescence lifetime (FLT) of PT14 measured by the means of a FLT reader as described by Doering et al. (2009). The effect of the compound on the enzymatic activity was determined after 1 hour (t=60 min) incubation at room temperature. The IC50 values, corresponding to the inhibitor concentration showing 50% reduction of the FLT values measured in absence of inhibitor, are calculated from the plot of percentage of inhibition vs. inhibitor concentration using non-linear regression analysis software.
`O=C(O)CC1(C(=O)N[C@@H](Cc2ccc(-c3ccccc3)cc2)C(=O)N2CCC[C@H]2C(=O)O)CCCC1` [Example 1-1, (S)-1-((S)-3-(biphenyl-4-yl)-2-(1-(carboxymethyl)cyclopentanecarboxamido)propanoyl)pyrrolidine-2-carboxylicacid] was tested, and the pIC50 was 7.92.
`O=C(O)CC1(C(=O)N[C@@H](Cc2ccc(-c3ccccc3)cc2)C(=O)O)CCCC1` [Example 1-7] gave a pIC50 of 7.82.
In the case of `O=C(O)CC1(C(=O)N[C@@H](Cc2ccc(-c3ccccc3Cl)cc2)c2nnn[nH]2)CCCC1` [Example 8-1], the pIC50 was 8.22.
Work on `Cc1cccc(-c2ccc(C[C@H](NC(=O)C3(CC(=O)O)CCCC3)c3nnn[nH]3)cc2)c1` [Example 9-1, (S)-2-(1-(2-(3′-methylbiphenyl-4-yl)-1-(1H-tetrazol-5-yl)ethylcarbamoyl)cyclopentyl)acetic acid] yielded a pIC50 of 7.40.
Work on `COc1cccc(-c2ccc(C[C@H](NC(=O)C3(CC(=O)O)CCCC3)c3nnn[nH]3)cc2)c1` [Example 9-2] yielded a pIC50 of 7.96.
With `O=C(O)CC1(C(=O)N[C@@H](Cc2ccc(-c3ccccc3)cc2)c2nnn[nH]2)CCCC1` [Example 31-2, {1-[(S)-2-Biphenyl-4-yl-1-(1H-tetrazol-5-yl)-ethylcarbamoyl]-cyclopentyl}-acetic acid] the pIC50 was 8.00.
